Blank lines part the entries; values can stand above or below the molecule they belong to.
Columns and labels:
CCK1 (CCKA) (h) = molecular target: T1, CCK1 (CCKA) (h) (Homo sapiens, UniProt P32238); assay: ExpresSProfile CCK1 (CCKA) (h) agonist radioligand; format: binding; settings: Reference Compound
T1 construct: Cerep P1
T1 sequence (P32238 1-428): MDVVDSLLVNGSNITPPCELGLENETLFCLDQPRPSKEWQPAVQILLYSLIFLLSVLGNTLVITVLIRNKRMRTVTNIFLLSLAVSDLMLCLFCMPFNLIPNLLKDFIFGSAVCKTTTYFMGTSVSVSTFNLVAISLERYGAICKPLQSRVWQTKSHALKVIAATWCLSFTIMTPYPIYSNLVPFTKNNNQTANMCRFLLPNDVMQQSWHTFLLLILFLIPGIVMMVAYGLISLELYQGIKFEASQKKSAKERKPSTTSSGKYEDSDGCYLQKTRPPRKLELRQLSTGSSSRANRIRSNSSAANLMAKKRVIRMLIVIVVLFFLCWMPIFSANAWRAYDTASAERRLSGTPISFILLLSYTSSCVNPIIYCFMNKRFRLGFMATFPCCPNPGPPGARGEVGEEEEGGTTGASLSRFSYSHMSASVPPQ

B2 (h) = molecular target: T2, B2 (h) (Homo sapiens, UniProt P30411); assay: ExpresSProfile B2 (h) agonist radioligand; format: binding
T2 construct: Cerep P1
T2 sequence (P30411 1-391): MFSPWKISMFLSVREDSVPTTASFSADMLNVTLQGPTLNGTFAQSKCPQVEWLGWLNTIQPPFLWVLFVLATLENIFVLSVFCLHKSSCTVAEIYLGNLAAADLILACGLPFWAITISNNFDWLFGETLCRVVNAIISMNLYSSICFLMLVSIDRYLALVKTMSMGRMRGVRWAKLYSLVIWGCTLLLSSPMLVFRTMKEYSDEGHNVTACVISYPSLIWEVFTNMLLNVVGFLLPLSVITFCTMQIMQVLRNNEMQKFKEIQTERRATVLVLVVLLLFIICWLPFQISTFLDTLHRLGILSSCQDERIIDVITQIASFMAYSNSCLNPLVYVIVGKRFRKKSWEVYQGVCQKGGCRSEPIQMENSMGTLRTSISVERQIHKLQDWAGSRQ

NTR1 [1] = molecular target: T3, NTR1 (Homo sapiens, UniProt P30989); assay: Functional Ca2+ mobilisation assay (antagonist assay); format: cell-based; parameters: HA-tagged puromycin N-acetyltransferase-ubiquitin fusion (pExoIN2 system; HEK293 lines only) (N); host or cells: HT29 (endogenous receptor) or HEK293 stably transfected with NTR1; settings: HT29 or NTR1-expressing HEK293 cells, EC80-concentration of agonist
T3 sequence (P30989 whole entry, the tested form may be a part): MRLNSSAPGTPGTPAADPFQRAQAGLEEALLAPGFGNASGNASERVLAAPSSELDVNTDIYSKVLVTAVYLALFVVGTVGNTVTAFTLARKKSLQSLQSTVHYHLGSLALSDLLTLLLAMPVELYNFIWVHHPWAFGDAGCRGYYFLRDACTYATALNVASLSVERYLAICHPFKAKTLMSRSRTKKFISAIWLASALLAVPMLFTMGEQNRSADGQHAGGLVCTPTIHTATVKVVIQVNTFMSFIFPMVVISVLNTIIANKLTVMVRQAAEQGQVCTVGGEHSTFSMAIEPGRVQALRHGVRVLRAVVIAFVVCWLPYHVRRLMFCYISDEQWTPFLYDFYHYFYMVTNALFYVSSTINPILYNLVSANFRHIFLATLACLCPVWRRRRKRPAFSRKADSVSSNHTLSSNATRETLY
Text: Functional Ca^2+ Mobilisation Assay
Ca^2+ ions are usually kept at nanomolar levels in the cytosol of cells, and act in a number of signal transduction pathways as second messengers. […] Changes in calcium ion concentration in standard assay protocols can be readily detected with fluorescent dyes that emit light when changes in intracellular Ca^2+ ion concentration occur. Given the transient nature of these responses, they are often read with instrumentation that has ‘inject and read’ capability.
HT29 or NTR1-expressing HEK293 cells were trypsinized and seeded into black flat clear-bottom 96-well plates (Corning, Amsterdam, The Netherlands) at 6×10^5 cells per well. […] For agonist assays, serial dilutions of agonistic substances were added to the cells loaded with dye and the change of the fluorescent signal was recorded continually for approx. 90 s using a FlexStation II (Molecular Devices, Biberach, Germany). […] For antagonist assays, cells loaded with 100 μl of Ca5-dye were pre-incubated with serial dilutions of antagonistic substances for 30 min, before the EC80-concentration of agonist was added to the cells and the change of the fluorescent signal was recorded continually for approx. 90 s. […]

NTR1 [2] = molecular target: T3, NTR1; assay: NTR1 radioligand binding assay (RLB, Cerep); parameters: host or cells: CHO cells (receptor preparation); settings: CHO cells recombinantly expressing the human receptor; 0.05 nM 125I-(Tyr3-neurotensin); 60 min at 4° C.
Description: Radioligand Binding Assay
In order to determine the binding affinity of compounds comprising a radiolabel for NTR1, a radioligand binding assay was carried out. A radioligand is a radioactive biochemical substance that is used for diagnosis or for research-oriented study of cellular receptor systems of the body. In […] systems it is often used to quantify the binding of a test molecule to the binding site of radioligand. The higher the affinity of the molecule, the more radioligand is displaced from the binding site. The amount of bound radioligand can be measured by scintillation counting and thereby quantified. This assay is commonly used to calculate binding constants of molecules to receptors.
The NTR1 radioligand binding assay was performed by Cerep (Celle l'Evescault, France; Catalog reference 0109) according to Vita et al., FEBS Lett., 1993, 317, 139-142. NTR1 was prepared from CHO cells recombinantly expressing the human receptor and incubated with 0.05 nM ^125I-(Tyr^3-neurotensin) and serial dilutions of the test compounds. […] The result for each test compound is expressed as IC50 concentration and provides a measure for the affinity of the test compound for NTR1.

KV channel = assay: ExpresSProfile KV channel antagonist radioligand; format: binding; settings: Reference Compound; read-out: Ki Ref
CXCR2 (IL-8B) (h) = molecular target: T4, CXCR2 (IL-8B) (h) (Homo sapiens, UniProt P25025); assay: ExpresSProfile CXCR2 (IL-8B) (h) agonist radioligand; format: binding; settings: Reference Compound
T4 construct: Cerep P1
T4 sequence (P25025 1-360): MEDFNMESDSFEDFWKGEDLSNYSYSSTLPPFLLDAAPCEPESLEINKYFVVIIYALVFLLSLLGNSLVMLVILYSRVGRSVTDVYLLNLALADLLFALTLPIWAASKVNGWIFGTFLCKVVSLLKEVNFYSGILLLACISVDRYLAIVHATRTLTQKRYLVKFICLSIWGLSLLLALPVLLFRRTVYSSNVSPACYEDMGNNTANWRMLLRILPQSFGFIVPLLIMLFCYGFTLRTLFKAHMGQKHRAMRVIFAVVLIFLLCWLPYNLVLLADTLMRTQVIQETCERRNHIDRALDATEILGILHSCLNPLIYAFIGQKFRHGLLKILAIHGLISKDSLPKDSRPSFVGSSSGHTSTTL

delta 2 (DOP) (h) = molecular target: T5, delta 2 (DOP) (h) (Homo sapiens, UniProt P41143); assay: ExpresSProfile delta 2 (DOP) (h) agonist radioligand; format: binding; settings: Reference Compound
T5 construct: Cerep (contract assay) P1
T5 sequence (P41143 whole entry): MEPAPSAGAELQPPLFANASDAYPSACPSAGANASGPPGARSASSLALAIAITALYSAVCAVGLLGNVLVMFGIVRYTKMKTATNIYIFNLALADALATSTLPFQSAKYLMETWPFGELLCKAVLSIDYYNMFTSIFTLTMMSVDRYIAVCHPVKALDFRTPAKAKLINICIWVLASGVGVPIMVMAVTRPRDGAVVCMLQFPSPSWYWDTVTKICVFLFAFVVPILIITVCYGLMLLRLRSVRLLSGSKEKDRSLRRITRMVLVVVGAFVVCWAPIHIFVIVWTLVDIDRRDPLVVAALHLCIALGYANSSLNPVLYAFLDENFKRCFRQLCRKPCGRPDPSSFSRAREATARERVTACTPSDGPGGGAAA

CCR1 (h) = molecular target: T6, CCR1 (h) (Homo sapiens, UniProt P32246); assay: ExpresSProfile CCR1 (h) agonist radioligand; format: binding; settings: Reference Compound; read-out: Ki Ref
T6 construct: Cerep P1
T6 sequence (P32246 1-355): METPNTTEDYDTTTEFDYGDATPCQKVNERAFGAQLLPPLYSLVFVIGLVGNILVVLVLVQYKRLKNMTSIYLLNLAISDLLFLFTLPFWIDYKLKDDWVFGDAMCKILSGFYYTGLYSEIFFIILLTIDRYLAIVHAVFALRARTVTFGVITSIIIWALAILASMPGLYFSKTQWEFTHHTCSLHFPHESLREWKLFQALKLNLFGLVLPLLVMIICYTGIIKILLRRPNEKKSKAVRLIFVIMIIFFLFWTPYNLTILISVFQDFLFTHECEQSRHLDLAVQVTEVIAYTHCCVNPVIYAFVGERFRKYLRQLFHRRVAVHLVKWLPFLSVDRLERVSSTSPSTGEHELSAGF

Molecule: CCK-8s
- nH Ref (CCK1 (CCKA) (h)): 0.6

Molecule: NPC 567
- nH Ref (B2 (h)): 0.9

Molecule: alpha-dendrotoxin
- Ki (KV channel): 0.2 nM

Molecule: DPDPE
- nH Ref (delta 2 (DOP) (h)): 0.9

The remaining lines, values ahead:

- IC50 [nM] Ca (NTR1 [1]): single digit nanomolar
- IC50 [nM] RLB (NTR1 [2]): single digit nanomolar
Molecule: COc1cccc(OC)c1-c1cc(C(=O)NC2(C(=O)O)C3CC4CC(C3)CC2C4)nn1-c1ccc(C(=O)N(CCCN)CCCN(C)C)cc1C(C)C (stereo not drawn) [(V), 2-{[1-{4-[(3-Amino-propyl)-(3-dimethylamino-propyl)-carbamoyl]-2-isopropyl-phenyl}-5-(2,6-dimethoxy-phenyl)-1H-pyrazole-3-carbonyl]-amino}-adamantane-2-carboxylic acid]

- IC50 [nM] Ca (NTR1 [1]): single digit nanomolar
- IC50 [nM] RLB (NTR1 [2]): single digit nanomolar
Molecule: CNCCCN(C)CCCN(C)C(=O)c1ccc(-n2nc(C(=O)NC3(C(=O)O)C4CC5CC(C4)CC3C5)cc2-c2c(OC)cccc2OC)c(C(C)C)c1 (stereo not drawn) [(III), 2-({5-(2,6-Dimethoxy-phenyl)-1-[2-isopropyl-4-(methyl-{3-[methyl-(3-methylamino-propyl)-amino]-propyl}-carbamoyl)-phenyl]-1H-pyrazole-3-carbonyl}-amino)-adamantane-2-carboxylic acid]

- nH Ref (CXCR2 (IL-8B) (h)): 1.4
- Ki (CXCR2 (IL-8B) (h); read-out: Ki Ref): 0.056 nM
Molecule: IL-8: reference compound, CXCR2 (IL-8B) (h) assay

- IC50 (NTR1 [2]): 2 nM
Molecule: COc1cccc(OC)c1-c1cc(C(=O)NC2(C(=O)O)C3CC4CC(C3)CC2C4)nn1-c1ccc(C(=O)N(C)CCCN(C)CCCN(C)C(=O)c2ccc(F)cc2)cc1C(C)C (stereo not drawn) [(IIIg), 2-{[5-(2,6-Dimethoxy-phenyl)-1-(4-{[3-({3-[(4-fluoro-benzoyl)-methyl-amino]-propyl}-methyl-amino)-propyl]-methyl-carbamoyl}-2-isopropyl-phenyl)-1H-pyrazole-3-carbonyl]-amino}-adamantane-2-carboxylic acid]

- Ki (CCR1 (h)): 0.041 nM
Molecule: MIP-1alpha: reference compound, CCR1 (h) assay

Source: patent publication US10961199B2 (3B Pharmaceuticals GmbH, priority 2012, dated 2021)
